# Laboratory results taken from patent US10912767B2, “Anthracycline prodrugs and methods of making and using the same” (THE REGENTS OF THE UNIVERSITY OF COLORADO, priority 2015, dated 2021).
# Where two headings read alike, the source gives them in different places. Non-standard residues stand in square brackets, D forms with d. Residues, ends and D or L forms follow the SMILES beside them. *: point of attachment. X1 = COc1cc(C(C)OC(=O)N2CO[C@@H]3[C@H](C)OC(OC4CC(O)(C(=O)CO)Cc5c(O)c6c(c(O)c54)C(=O)c4c(OC)cccc4C6=O)C[C@@H]32)c([N+](=O)[O-])cc1OCC(=O)NCCOCCOCCOCCn1nnc2c1-c1ccccc1CN(C(=O)CCNC(=O)CCN1C(=O)CC(*)C1=O)c1ccccc1-2; Mpa = O=C(O)CCS
# How the values were obtained:
# [1] = Photolysis timecourses, near UV blacklight 350 nm, HPLC; assay type: physicochemical; conditions: for k in ACN: H2O, relative rate constant for photocleavage / k in PBS, relative rate constant for photocleavage: 100 μM, near UV 350 nm; for k in ACN: H2O, relative rate constant for photocleavage / k in ACN: H2O, fold over photodoxazolidine: 1:1 acetonitrile:water; for photochemical reaction, fold faster than photodoxazolidine: both solvents
# Description: (§1) In order to investigate the photolysis of the drugs in a system amenable to cell culture use, a custom UV irradiation apparatus was constructed, consisting of 3 small blacklight fluorescent bulbs (Southern New England Ultraviolet Co., λmax=350 nm) set between two ring stands and suspended at a height of 11.5 cm. The bulbs' housing was reflective aluminum so as to direct as much UV irradiation as possible downward toward the plate. Upon installation in sterile cell culture hood, the power of the system was measured at approximately 6-7 mW using a Scientech laser power meter. Prior to experimentation, the hood and irradiation apparatus was sterilized with 254 nm germicidal UV irradiation overnight. Using this setup, 100 μM of 4,5-dimethoxy-2-nitrobenyl alcohol (DMNA), photodoxazolidine R═H, and glucose-PEG-photodoxazoldine were irradiated in individual wells of a 24-well plate. Initially, 50 μL of a DMSO stock was diluted with 950 μL of PBS and aliquots of 50 μL were removed at various times (0-180 min), mixing by pipetting each time. The timepoints were analyzed by HPLC (method 2) and plotted as fractional conversion versus time. […] Therefore, a second experiment was performed in which the PBS was replaced with 1:1 acetonitrile:water. With this system of 5% DMSO/47.5% acetonitrile/47.5% water, no visible precipitation was produced over the course of the reaction.
# The measured quantum yield of 0.002 for photodoxazolidine R═H (above) was lower than expected, which raised the possibility that the presence of the anthraquinone ring complex in the prodrugs was inhibiting photocleavage by quenching the activated state. To test whether this, the irradiation kinetics of DMNA (4, 5-dimethoxy-2-nitrobenzyl alcohol) was compared against photodoxazolidine R═H, which contains the DMNA unit as the photoactivating group. Additionally, glucose-PEG-photodoxazoldine was included for comparison; a synthetic precursor to this compound, azido-PEG-photodoxazolidine, is suspected of having a quantum yield of 0.01-0.02, which is 5-10-fold larger than photodoxazolidine. Irradiation was performed in 24-well cell culture dishes using the cell culture irradiation system described above with the soft-glass high-pass filter. […] In both cases, photodoxazolidine was the slowest to produce dox from the irradiation. In line with its quantum yield, glucose-PEG-photodoxazolidine reacted 4-5-fold faster than photodoxazolidine. However, DMNA was by far the fastest to undergo photochemistry in this system, converting to product approximately 30-fold faster than photodoxazolidine.
# [2] = tested on: MDA-MB-231 breast cancer cells; assay: Tumor cell growth inhibition, crystal violet (Example 2); assay type: cell-based, human; conditions: Homo sapiens, read-out: IC50
# Description: as §1
# The ovarian carcinoma line NCl/ADR-RES (ADR) was grown in high-glucose Dulbecco's Modified Eagle Medium (DMEM) supplemented with 10% fetal bovine serum (FBS), 200 units/mL of penicillin and 200 μg/mL of streptomycin. The breast carcinoma line MDA-MB-231 was cultured in low-glucose DMEM with the same additives. Both lines were maintained in a humidified incubator with 5% CO2/95% air at 37° C. UV irradiations were performed with the apparatus described above.
# Growth inhibition experiments were performed by seeding cells into 96-well plates or 24-well plates at densities of 1000-1500 cells per well or 8000 cells per well, respectively, and allowing the cells to adhere overnight. The media was then replaced with a range of aqueous concentrations of the drug in question and allowed to incubate at 37° C. with the cells for a span of time (Inc1) which ranged from 1 min to 48 hours. Irradiation was performed at room temperature with the plate's lid removed and ranged from 1 to 30 min. In some experiments, the drug solution was removed following Inc1 and irradiated in clean media or PBS. Following irradiation, the cells were placed back into the 37° C. incubator for a second period of incubation (Inc2), which varied between 1 min and 24 h, prior to replacement with fresh media. Plates which received no irradiation but identical treatment otherwise were done in parallel. The cells were then grown until the no-drug control wells reached approximately 80% confluence or 5 days, whichever was shorter. […] The cells were fixed with 5% formalin in PBS, stained with crystal violet, washed with tap water, and air-dried. The stain was resolubilized in 50% isopropyl alcohol, 50% H2O containing 2% (w/v) SDS. The staining density was read on a multiwell plate reader at 588-600 nm. Percentage cell density was calculated relative to the irradiated no-drug control wells, plotted as a function of drug concentration, and fit using non-linear least squared analysis with a variable-slope dose response model in GraphPad Prism 5.0 software.
# Although the introduction of a long-pass glass filter between the light source and the plate alleviated this effect to a small extent, a maximum irradiation time of 10 min was settled upon. […] Since a media change at that point would remove the cells as well, the re-adherence of the cell population was accomplished by the addition of a large volume (200 μL) of complete media following Inc2, and overnight incubation. Then, a full media change was done to remove the drug. […]
# [3] = tested on: MDA-MB-231 human breast cancer cells; assay: cells; assay type: cell-based
# Protocol: The breast carcinoma line MDA-MB-231 was cultured in Minimum Essential Media (MEM) supplemented with 10% of fetal bovine serum (FBS), 100 units/mL of penicillin and 100 μg/mL of streptomycin, and 1 mM of sodium pyruvate. The cells were incubated at 37° C. in an atmosphere of 95% air and 5% CO2.
# The cells were seeded to 96-well plates at a density of 1000 cells/well and allowed to adhere overnight. The prodrugs with various concentrations in MEM were added and the cells were incubated at 37° C. for 24 h. After the media was removed, the cells were washed with PBS two times. The cells in PBS (50 μL) were irradiated for 15 min, followed by incubating at room temperature for 30 min. The PBS was replaced with fresh media and the cells were grown until the no-drug control reached 80% confluency, or 5 days. Cell density was measured by crystal violet staining.
# The membrane permeability of the photoactivated prodrugs and their cellular uptake by MDA-MB-231 human breast cancer cells were each monitored by fluorescence microscopy. After the cells were grown with the prodrugs for 24 h, they were washed with PBS two times to remove the prodrugs that remained outside of the cells. The cellular uptake of 10 μM glucose-photodoxazolidine and glucose-PEG-photodoxazolidine was monitored with the fluorescence of the anthraquinone fluorophore. The prodrugs were then activated inside of the cells by black lamp UV irradiation (maximum intensity at 350 nm) for 15 min. […] This drastic change of cytotoxicity presumably arises from membrane permeability of MARCKS-ED peptide and possibly some phototoxicity from longer irradiation time.
Structure (SMILES),"k in ACN: H2O, relative rate constant for photocleavage [1] [min⁻¹]","k in PBS, relative rate constant for photocleavage [1] [min⁻¹]","k in ACN: H2O, fold over photodoxazolidine [1]","k in PBS, fold over photodoxazolidine [1]","photochemical reaction, fold faster than photodoxazolidine [1]","IC50 ([2]; 10 min, MDA-MB-231, +UV 10 min, near UV 350 nm) [nM]","IC50 ([2]; MDA-MB-231, prodrug alone, no UV) [nM]","IC50 ([3]; Homo sapiens, MDA-MB-231, light +, 24 h incubation, 15 min UV, read-out: IC50) [nM]","IC50 ([3]; Homo sapiens, MDA-MB-231, light −, 24 h incubation, read-out: IC50) [nM]","IC50 ([3]; Homo sapiens, MDA-MB-231) [nM]","IC50 ([3]; Homo sapiens, MDA-MB-231, 24 h) [nM]","IC50 ([3]; light −, 24 h incubation, read-out: IC50) [nM]"
"COc1cc(CO)c([N+](=O)[O-])cc1OC [DMNA, 4,5-dimethoxy-2-nitrobenzylalcohol, reference compound]",0.21,0.081,(30),(31),approximately 30 fold,,,,,,,
COc1cc(C(C)OC(=O)N2COC3C(C)OC(OC4CC(O)(C(=O)CO)Cc5c(O)c6c(c(O)c54)C(=O)c4c(OC)cccc4C6=O)CC32)c([N+](=O)[O-])cc1OCC(=O)NCCOCCOCCOCCn1cc(CCC(=O)NC2C(O)OC(CO)C(O)C2O)nn1 (centres unmarked) [Glucose-PEG-photodoxazolidine],0.036,0.011,(5.2),(4.2),4-5 fold,27 ± 2,> 10000,750,2400,,,
COc1cc(C(C)OC(=O)N2COC3C(C)OC(OC4CC(O)(C(=O)CO)Cc5c(O)c6c(c(O)c54)C(=O)c4c(OC)cccc4C6=O)CC32)c([N+](=O)[O-])cc1OCC(=O)NC1C(O)OC(CO)C(O)C1O (centres unmarked) [Glucose-Phtodoxazolidine],,,,,,,,,,832,2080,
COc1cc(C(C)OC(=O)N2CO[C@@H]3[C@H](C)OC(OC4CC(O)(C(=O)CO)Cc5c(O)c6c(c(O)c54)C(=O)c4c(OC)cccc4C6=O)C[C@@H]32)c([N+](=O)[O-])cc1OCC(=O)NCCOCCOCCOCCn1nnc2c1-c1ccccc1CN(C(=O)CCNC(=O)CCN1C(=O)CC(SCCC(=O)N[C@@H](CCCCN)C(=O)N[C@@H](CCCCN)C(=O)N[C@@H](CCCCN)C(=O)N[C@@H](CCCCN)C(=O)N[C@@H](CCCCN)C(=O)N[C@@H](CCCNC(=N)N)C(=O)N[C@@H](Cc3ccccc3)C(=O)N[C@@H](CO)C(=O)N[C@@H](Cc3ccccc3)C(=O)N[C@@H](CCCCN)C(=O)N[C@@H](CCCCN)C(=O)N[C@@H](CO)C(=O)N[C@@H](Cc3ccccc3)C(=O)N[C@@H](CCCCN)C(=O)N[C@@H](CC(C)C)C(=O)N[C@@H](CO)C(=O)NCC(=O)N[C@@H](Cc3ccccc3)C(=O)N[C@@H](CO)C(=O)N[C@@H](Cc3ccccc3)C(=O)N[C@@H](CCCCN)C(=O)N[C@@H](CCCCN)C(=O)N[C@@H](CC(N)=O)C(=O)N[C@@H](CCCCN)C(=O)N[C@@H](CCCCN)C(N)=O)C1=O)c1ccccc1-2 (some centres unmarked) [MARCKS-PEG-Photodoxazolidine] ([Mpa](X1)KKKKKRFSFKKSFKLSGFSFKKNKK-NH2),,,,,,,,,,,,1300
